Assay results from patent publication US4556715A, “Nicotinic acid derivatives” (Kyorin Pharmaceutical Co., Ltd., priority 1980, dated 1985).
Like-named read-outs stand apart in the source and are kept apart here.

How the values were obtained:
[1] = in vivo; details: mouse, po, p o, male ICR mice
Excerpt: The present compounds were given to 6 week-old male mice of the ICR strain and their acute toxicity was examined.

[2] = test system: serum and liver lipid levels in rats; assay: Serum and liver lipid levels and relative liver weight in rats (100 mg/kg, 10 days); format: in vivo, Male rats of the Wistar strain; details: for response vs control in vivo at 100 mg/kg: Rattus norvegicus, po
Experimental: (2) Male rats of the Wistar strain weighing 160-180 g were fed a stock deit (CE-2, Japan CLEA, Tokyo) and water ad libitum. The present compounds and KCD-232 were suspended, respectively, in a 0.5% of CMC solution and give orally to rats once a day at a dose of 100 mg/kg b.w. for 10 days.
Control rats were received the 0.5% CMC solution alone. The diet was withdrawn immediately after the last administration of compounds. Animals were sacrificed by decapitation 4 hr after the last administration and blood was collected, clotted and centrifuged to obtain serum. The liver was excised quickly and weighed. Total lipids were extracted from the serum and liver, and the levels of Ch, TG and PL were determined colorimetrically.

[3] = test system: serum and liver lipid levels in normal rats; assay: Effects on relative liver weight, serum and liver lipid levels in normal rats (100 mg/kg, 7 days); format: in vivo, Male Wistar strain rats
Experimental: (1) Effects on relative liver weight, serum and liver lipid levels in normal rats
Male Wistar strain rats, weighing 180-210 g were orally administered the present compounds (X=Cl, n1 =2, 3, 4 and n2 =1) and 4-(4-chlorobenzyloxy)benzyl nicotinate (KCD-232), being X=Cl, n1 =1, n2 =1, respectively, which were suspended in 0.5% carboxymethyl cellulose (CMC) solution once a day at a dose of 100 mg/kg b.w. for 7 days. The last administration was occured in rats fasted overnight. At 4 hr later blood was withdrawn from jugular vein, clotted and centrifuged to obtain serum. The liver was rapidly removed and weighed. Total lipids were extracted from the serum and liver, and cholesterol (Ch), triglycerides (TG) and phospholipids (PL) levels were determined.

[4] = Table 2, 100 mg/kg p.o. 10 days, Mean ± S.E. (n = 9)
[5] = Table 1, 100 mg/kg p.o. 7 days, fasted overnight, mean ± S.E. (n = 6)
[6] = Table 1, in parentheses, Control = (100)

## O=C(OCc1ccc(OCCCCc2ccc(Cl)cc2)cc1)c1cccnc1 [n1=4, n2=1, 4-[4-(4-chlorophenyl)butoxy]benzyl nicotinate]
[1]
  LD50: > 4000 mg/kg
[2]; 100 mg/kg p.o. 10 days
  lipid lowering effects compared with KCD-232 (in words): the lipid lowering effects were superior to that of KCD-232
[2]; 240 h, Table 2, in parentheses, Control = (100), read-out: Liver lipid levels PL, relative to Control (100)
  response vs control in vivo at 100 mg/kg: 107%
[2]; Table 2, in parentheses, Control = (100), read-out: Liver lipid levels Ch, relative to Control (100)
  response vs control in vivo at 100 mg/kg: 94.4%
[2]; Table 2, in parentheses, Control = (100), read-out: Liver lipid levels TG, relative to Control (100)
  response vs control in vivo at 100 mg/kg: 80.5%
[2]; Table 2, in parentheses, Control = (100), read-out: Serum lipid levels Ch, relative to Control (100)
  response vs control in vivo at 100 mg/kg: 67.2%
[2]; Table 2, in parentheses, Control = (100), read-out: Serum lipid levels PL, relative to Control (100)
  response vs control in vivo at 100 mg/kg: 60.9%
[2]; Table 2, in parentheses, Control = (100), read-out: Serum lipid levels TG, relative to Control (100)
  response vs control in vivo at 100 mg/kg: 24.2%
[2]; [4]
  Liver lipid levels Ch: 2.87 ± 0.13 mg/g liver
  Liver lipid levels PL: 40.8 ± 0.7 mg/g liver
  Liver lipid levels TG: 5.06 ± 0.69 mg/g liver
  Relative liver weight: 4.04 ± 0.10 g/100 g b.w.
  Serum lipid levels Ch: 58.3 ± 3.3 mg/dL
  Serum lipid levels PL: 90.5 ± 4.6 mg/dL
  Serum lipid levels TG: 29.9 ± 2.3 mg/dL
[2]; Table 2, in parentheses, Control = (100)
  Relative liver weight, relative to Control (100): 105
[3]; 100 mg/kg p.o. 7 days, compared with control
  serum Ch, TG and PL (in words): significantly reduced serum Ch, TG and PL
[3]; 100 mg/kg p.o. 7 days, p<0.05
  reduction of liver TG level compared with control: 32%
[3]; [5]
  Liver lipid levels Ch: 3.43 ± 0.10 mg/g liver
  Liver lipid levels PL: 30.2 ± 1.4 mg/g liver
  Liver lipid levels TG: 5.06 ± 1.21 mg/g liver
  Serum lipid levels Ch: 45.3 ± 3.8 mg/dL
  Serum lipid levels PL: 60.4 ± 4.8 mg/dL
  Serum lipid levels TG: 16 ± 3.2 mg/dL
[3]; Table 1, 100 mg/kg p.o. 7 days, mean ± S.E. (n = 6)
  Relative liver weight: 3.16 ± 0.05 g/100 g b.w.
[3]; [6]
  Liver lipid levels Ch, relative to Control (100): 97
  Liver lipid levels PL, relative to Control (100): 82
  Liver lipid levels TG, relative to Control (100): 69
  Relative liver weight, relative to Control (100): 102
  Serum lipid levels Ch, relative to Control (100): 60
  Serum lipid levels PL, relative to Control (100): 59
  Serum lipid levels TG, relative to Control (100): 47
